Results taken from ChEMBL document CHEMBL4184139, “Adamantyl- and other polycyclic cage-based conjugates of desferrioxamine B (DFOB) for treating iron-mediated toxicity in cell models of Parkinson's disease” (Bioorg Med Chem Lett, 2017).
Calls of active or inactive are those of the source. No cut-off for these calls is given here.

Experiments:
[1] = Octanol-water partition coefficient, log P of the compound at 1 mg by RP-HPLC analysis; type: physicochemical
SK-N-BE(2)-M17 [2] = assay: Cytoprotection against PQ-induced cell death in human SK-N-BE(2)-M17 cells assessed as increase in cell viability at 100 uM pretreated for 2 hrs followed by 1 mM PQ addition measured after 24 hrs by MTT assay; type: functional, cell-based
SK-N-BE(2)-M17 [3] = assay: Cytoprotection against PQ-induced cell death in human SK-N-BE(2)-M17 cells assessed as increase in cell viability at 100 uM pretreated for 2 hrs followed by 1 mM PQ addition measured after 24 hrs by LDH assay; type: functional, cell-based
SK-N-BE(2)-M17 [4] = assay: Cytoprotection against H2O2-induced cell death in human SK-N-BE(2)-M17 cells assessed as increase in cell viability at 100 uM pretreated for 2 hrs followed by 1 mM H2O2 addition measured after 24 hrs by MTT assay; type: functional, cell-based
SK-N-BE(2)-M17 [5] = assay: Cytoprotection against H2O2-induced cell death in human SK-N-BE(2)-M17 cells assessed as increase in cell viability at 100 uM pretreated for 2 hrs followed by 1 mM H2O2 addition measured after 24 hrs by LDH assay; type: functional, cell-based
SK-N-BE(2)-M17 [6] = assay: Cytoprotection against PQ-induced cell death in human SK-N-BE(2)-M17 cells assessed as increase in cell viability at 100 uM treated 2 hrs post 2 mM PQ treatment measured after 24 hrs by MTT assay; type: functional, cell-based
SK-N-BE(2)-M17 [7] = assay: Cytoprotection against PQ-induced cell death in human SK-N-BE(2)-M17 cells assessed as increase in cell viability treated 2 hrs post 2 mM PQ treatment measured after 24 hrs by MTT assay; type: functional, cell-based
SK-N-BE(2)-M17 [8] = assay: Cytoprotection against PQ-induced cell death in human SK-N-BE(2)-M17 cells assessed as increase in cell viability at 100 uM treated post 200 uM Fecl3 and 1 mM PQ treatment measured after 24 hrs by MTT assay; type: functional, cell-based
SK-N-BE(2)-M17 [9] = assay: Cytoprotection against PQ-induced cell death in human SK-N-BE(2)-M17 cells assessed as increase in cell viability at 100 uM treated post 200 uM Fecl3 and 1 mM PQ treatment measured after 24 hrs by LDH assay; type: functional, cell-based
Astrocyte [10] = assay: Cytoprotection against H2O2-induced cell death in BSO pretreated C57BL6/J mouse brain primary astrocytes assessed as increase in cell viability at 10 uM pretreated for 2 hrs followed by H2O2 addition measured after 24 hrs by MTT assay; type: functional, cell-based
Astrocyte [11] = assay: Cytoprotection against H2O2-induced cell death in BSO pretreated C57BL6/J mouse brain primary astrocytes assessed as increase in cell viability at 10 uM pretreated for 2 hrs followed by H2O2 addition measured after 24 hrs by LDH release assay; type: functional, cell-based
[12] = Binding affinity to Fe3+ in ferric ammonium citrate loaded C57BL6/J mouse brain primary astrocytes assessed as iron depletion at 100 uM treated 2 hrs post 125 uM FAC loading measured after 2 hrs by ICP-MS analysis; type: cell-based
SK-N-BE(2)-M17 [13] = assay: Cytotoxicity against human SK-N-BE(2)-M17 cells at 100 uM 24 hrs by MTT assay; type: cell-based; settings: sk-n-be(2)-m17, 24 h
SK-N-BE(2)-M17 [14] = assay: Cytotoxicity against human SK-N-BE(2)-M17 cells at 100 uM 24 hrs by LDH release assay; type: cell-based; settings: sk-n-be(2)-m17, 24 h
[15] = Binding affinity to Fe3+ assessed as [M+H]+ adduct formation by LC-MS/MS analysis
[16] = Binding affinity to Fe3+ assessed as [M+2H]+ adduct formation by LC-MS/MS analysis
[17] = Binding affinity to Fe3+ assessed as change in retention time for compound-Fe3+ complex by RP-HPLC analysis relative to free ligand
SK-N-BE(2)-M17 [18] = assay: Cytoprotection against PQ-induced cell death in human SK-N-BE(2)-M17 cells assessed as increase in cell viability up to 1 mM treated 2 hrs post 2 mM PQ treatment by MTT assay; type: functional, cell-based
[19] = Binding affinity to Fe3+
[20] = Binding affinity to Fe2+
SK-N-BE(2)-M17 [21] = assay: Cytoprotection against PQ-induced cell death in human SK-N-BE(2)-M17 cells assessed as increase in cell viability at 1 mM pretreated for 2 hrs followed by 1 mM PQ addition measured after 24 hrs by MTT assay; type: functional, cell-based
SK-N-BE(2)-M17 [22] = assay: Cytoprotection against PQ-induced cell death in human SK-N-BE(2)-M17 cells assessed as increase in cell viability at 1 mM pretreated for 2 hrs followed by 1 mM PQ addition measured after 24 hrs by LDH assay; type: functional, cell-based
SK-N-BE(2)-M17 [23] = assay: Cytoprotection against H2O2-induced cell death in human SK-N-BE(2)-M17 cells assessed as increase in cell viability at 1 mM pretreated for 2 hrs followed by 1 mM H2O2 addition measured after 24 hrs by MTT assay; type: functional, cell-based
SK-N-BE(2)-M17 [24] = assay: Cytoprotection against H2O2-induced cell death in human SK-N-BE(2)-M17 cells assessed as increase in cell viability at 1 mM pretreated for 2 hrs followed by 1 mM H2O2 addition measured after 24 hrs by LDH assay; type: functional, cell-based
SK-N-BE(2)-M17 [25] = assay: Cytoprotection against PQ-induced cell death in human SK-N-BE(2)-M17 cells assessed as increase in cell viability at 100 uM treated 2 hrs post 2 mM PQ treatment measured after 24 hrs by LDH assay; type: functional, cell-based
SK-N-BE(2)-M17 [26] = assay: Cytoprotection against H2O2-induced cell death in human SK-N-BE(2)-M17 cells assessed as increase in cell viability at 100 uM treated 2 hrs post 0.8 mM H2O2 treatment measured after 24 hrs by MTT assay; type: functional, cell-based
SK-N-BE(2)-M17 [27] = assay: Cytoprotection against H2O2-induced cell death in human SK-N-BE(2)-M17 cells assessed as increase in cell viability at 100 uM treated 2 hrs post 0.8 mM H2O2 treatment measured after 24 hrs by LDH assay; type: functional, cell-based

Row | Compound | logP [1] | Activity (SK-N-BE(2)-M17 [2]) | Activity (SK-N-BE(2)-M17 [3]) | Activity (SK-N-BE(2)-M17 [4]) | Activity (SK-N-BE(2)-M17 [5]) | Activity (SK-N-BE(2)-M17 [6]) | EC50 (SK-N-BE(2)-M17 [7]) [µM] | Activity (SK-N-BE(2)-M17 [8]) | Activity (SK-N-BE(2)-M17 [9]) | Activity (Astrocyte [10]) | Activity (Astrocyte [11]) | Activity [12] | Activity (SK-N-BE(2)-M17 [13]) | Activity (SK-N-BE(2)-M17 [14]) | Activity [15] | Activity [16] | Retention time [17] [min] | Activity (SK-N-BE(2)-M17 [25]) | Activity (SK-N-BE(2)-M17 [26]) | Activity (SK-N-BE(2)-M17 [27]) | other results
1 | CC(=O)N(O)CCCCCNC(=O)CCC(=O)N(O)CCCCCNC(=O)CCC(=O)N(O)CCCCCNC(=O)CC12CC3CC(C)(CC(C)(C3)C1)C2 | 2.17 | Active | Active | Active | Active | Active | 5.8 | Active | Active | Active | Active | Active | Non-Toxic | Non-Toxic | Active | Active | 1.54 |  |  |  | 
2 | CC(=O)N(O)CCCCCNC(=O)CCC(=O)N(O)CCCCCNC(=O)CCC(=O)N(O)CCCCCN [DEFEROXAMINE] | -2.29 |  |  |  |  |  |  |  |  |  |  | inactive |  |  |  |  | -0.52 |  |  |  | Activity (SK-N-BE(2)-M17 [18]): inactive; log K [19]: 30; log K [20]: 8; Activity (SK-N-BE(2)-M17 [21]): Active; Activity (SK-N-BE(2)-M17 [22]): Active; Activity (SK-N-BE(2)-M17 [23]): Active; Activity (SK-N-BE(2)-M17 [24]): Active
3 | CC(=O)N(O)CCCCCNC(=O)CCC(=O)N(O)CCCCCNC(=O)CCC(=O)N(O)CCCCCNC(=O)C1CCCCC1 | 0.96 | inactive | inactive | inactive | inactive | inactive |  |  |  |  |  | Active | Non-Toxic | Non-Toxic | Active | Active | -0.04 | inactive | inactive | inactive | 
4 | CC(=O)N(O)CCCCCNC(=O)CCC(=O)N(O)CCCCCNC(=O)CCC(=O)N(O)CCCCCNC(=O)C12CC3CC(C)(CC(C)(C3)C1)C2 | 2.07 | Active | Active | Active | Active | Active | 9.8 | Active | Active | Active | Active |  | Non-Toxic | Non-Toxic | Active | Active | 1.06 |  | Active |  | 
5 | CCCCC[C@]12CC[C@@H](CC1)[C@@H](C(=O)NCCCCCN(O)C(=O)CCC(=O)NCCCCCN(O)C(=O)CCC(=O)NCCCCCN(O)C(C)=O)C2 (relative stereo) | 2.82 | Active | Active | Active | Active | Active | 10 |  |  | Active | Active | Active | Non-Toxic | Non-Toxic | Active | Active | 3.67 | Active | Active | Active | 
